According to paper PMC11623267, “Inhibitors of malaria parasite cyclic nucleotide phosphodiesterases block asexual blood-stage development and mosquito transmission” (Science Advances, 2024):
Like-named read-outs stand apart in the source and are kept apart here.

Key:
Assay type in all cases: cell-based, Plasmodium falciparum
[1] = test system: P. falciparum clinical isolates from Tororo and Busia Districts of Uganda; assay: Ex vivo 72-hour SYBR Green assay, Ugandan clinical isolates; conditions: 47 Ugandan isolates
Description: Clinical isolates were from the Tororo District of Uganda, located in the central-eastern part of the county near the Kenya border. Tororo and surrounding areas have high-intensity, year-round malaria transmission. […] Patients reporting use of antimalarial treatment within the previous 30 days or with evidence of an infection with other Plasmodium species were excluded. Informed consent was obtained from patients and/or primary care givers (depending on age); children aged 8 to 17 years provided assent. Two to 5 ml of blood was collected by venipuncture in a heparin tube. Samples were delivered to the adjacent IDRC laboratory at Tororo District Hospital or transported by car from Masafu Hospital on the day of collections for storage of blood spots on filter paper (for isolation of nucleic acids) and initiation of ex vivo culture of malaria parasites. Treatment involved a standard therapeutic regimen for uncomplicated falciparum malaria, which was a 3-day course of the artemisinin-based combination therapy (ACT), artemether-lumefantrine. In Uganda, at the time of sampling, there was widespread resistance to the antifolate drugs due to mutant pfdhfr/pfdhps alleles. […] Chloroquine was prepared at 10 mM in water. Stock solutions were stored at −20°C. Working solutions were freshly prepared from a single aliquot within 4 hours of the susceptibility test and stored at 4°C.
(§1) Samples were delivered to the adjacent IDRC laboratory at Tororo District Hospital or transported by car from Masafu Hospital on the day of collection for storage of blood spots on filter paper (for isolation of nucleic acids) and initiation of ex vivo culture of malaria parasites. […] Before assay, 10 mM antimalarial stock compounds were diluted as necessary in DMSO and stored at −20°C. […] Compounds were serially diluted threefold in a 96-well assay plate in complete medium to a final volume of 50 μl, in columns 1 to 10, with concentrations optimized to capture full dose-response curves. Column 11 contained compound-free controls, while column 12 contained uninfected human RBC controls. Parasite culture (150 μl) was added to columns 1 to 11 of the assay plate with a final volume of 200 μl per well, 0.2% parasitemia, and 2% hematocrit. […] Thawed plates were incubated with SYBR Green lysis buffer for 1 hour in the dark as previously reported ([62]). Fluorescence was quantified using a BMG Fluostar Optima plate reader at an excitation of 485 nm and an emission of 530 nm, and data were plotted using GraphPad Prism 7. The data were curve fit with a variable slope function to estimate IC50 values. For each isolate, a Z′ factor to assess assay quality was calculated from positive controls (eight drug-free wells) and negative controls (eight parasite-free, red cell control wells). Z′ values over 0.5 were considered good assays, but each curve was also examined by eye for suitability. Some assays with Z′ below 0.5 may be considered valid depending on factors such as the SE of the curve-fit IC50.

[2] = test system: P. falciparum Dd2; assay: Ex vivo 72-hour SYBR Green assay, Dd2 control (Uganda); conditions: Ugandan ex vivo assay control; read-out: EC50 lab strain Dd2
Method: as §1

[3] = test system: P. falciparum (clone 3D7); assay: Parasite reduction ratio (PRR) assay
Method: The in vitro killing profile of compounds was determined by monitoring the ability of parasites to recover following treatment with a compound of interest using a previously reported approach ([50]), which allowed calculation of the PRR ([51]). […] To quantify the number of viable parasites following treatment, four independent sets of threefold serial dilutions were performed on each sample, which were assayed for the presence or absence of parasites after 28 days using the LDH assay, and the number of viable parasites was determined by the number of wells showing growth. PRR and PCT99.9% were calculated as previously reported ([50]).

[4] = test system: P. falciparum Dd2-B2 lines selected under drug pressure; assay: 72-hour flow cytometry EC50 assay, lines selected under drug pressure; conditions: for EC50: Plasmodium falciparum
[5] = test system: P. falciparum Dd2-B2; assay: 72-hour flow cytometry EC50 assay, Dd2-B2 parental line; conditions: Plasmodium falciparum, DD2, read-out: EC50 Dd2-B2 parental line

| Structure (SMILES) | EC50 ([1]; read-out: EC50 clinical isolates, Gmean (geometric mean)) | EC50 ([1]; read-out: EC50 clinical isolates, Median) | EC50 [2] | Lag phase ([3]; 10× EC50, 3D7) | Log PRR ([3]; 10× EC50, 3D7) | PCT99.9% (hours taken to kill 99.9% of the parasites) ([3]; 10× EC50, 3D7) | Slope ([3]; 10× EC50, 3D7 killing profile) | Killing profile ([3]; 10× EC50, faster than pyrimethamine, slower than chloroquine) | EC50 ([4]; DD2, read-out: EC50, line selected with SAL-0010003, Well A7) | EC50 ([4]; DD2, read-out: EC50, line selected with SAL-0010003, Well E2) | EC50 ([4]; DD2, read-out: EC50, line selected with SAL-0010003, Well F10) | Mean fold change in EC50 ([4]; selected lines vs Dd2-B2 parental line, ±SD) | EC50 shift, line selected with SAL-0010003, Well A7 ([4]; vs Dd2-B2) | EC50 shift, line selected with SAL-0010003, Well E2 ([4]; vs Dd2-B2) | EC50 shift, line selected with SAL-0010003, Well F10 ([4]; vs Dd2-B2) | EC50 [5] |
| --- | --- | --- | --- | --- | --- | --- | --- | --- | --- | --- | --- | --- | --- | --- | --- | --- |
| CC(C)c1[nH]nc2c(=O)[nH]c(Cc3ccccc3F)nc12 [SAL-0010042] | 204 nM | 197 nM | 115 nM |  |  |  |  |  |  |  |  |  |  |  |  |  |
| CC(C)c1n[nH]c2c(=O)[nH]c(Cc3ccc(F)cc3F)nc12 [SAL-0010003] |  |  |  | 0 h | 3.11 | 47.1 h | −0.0647 ± 0.0047 | fast/moderate killing profile | 2800 nM | 2510 nM | 1620 nM | 7.6 ± 2.0 fold | 9.2 fold | 8.3 fold | 5.3 fold | 304 nM |
